EC50 data for 44 compounds are collected here from BindingDB's records for doi:10.7270/Q2CN728N (Nmmlsc, 2008).

Structures can show the parent of a compound that is named as a salt.

What is called EC50 is the concentration that produces a half-maximal response. High values mean a need for much substance, low ones an effect from little substance.

The first experiment addresses T1, Bcl-2-related protein A1 (Homo sapiens, UniProt Q16548).
T1 sequence (Q16548 whole entry): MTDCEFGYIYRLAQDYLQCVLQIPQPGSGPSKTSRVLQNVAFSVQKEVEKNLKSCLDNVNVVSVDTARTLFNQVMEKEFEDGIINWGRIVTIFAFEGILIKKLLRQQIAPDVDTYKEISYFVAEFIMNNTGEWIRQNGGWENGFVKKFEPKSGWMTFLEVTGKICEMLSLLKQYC
As to the kind of experiment: Bfl-1/Bim complex disruptors – biochemical, multiplexed, bead-based flow cytometry, dose response (AID 1320). Conditions: inactive by the depositor's call; pH 7.4; 4 °C.
The compound `CCC(=O)OCCNc1cc(Sc2nccn2C)c2nonc2c1[N+](=O)[O-]` [SMR000207033] displayed a 50% effective concentration (EC50) of 26.8 µM.
Consider `CCOC(=O)CSC1=NC(=O)/C(=C/c2ccc(Br)cc2)S1` [ethyl 2-[[(5Z)-5-[(4-bromophenyl)methylidene]-4-oxo-1,3-thiazol-2-yl]sulfanyl]acetate], for which the EC50 amounted to 0.55 µM.
Take `Cc1ccc(/C=C2/NC(=O)N(Cc3ccccc3)C2=O)o1` [MLS000698643]: the 50% effective concentration (EC50) worked out at 2.73 µM.
The compound `O=C(NCCO)c1ccc2nc(-c3ccco3)c(-c3ccco3)nc2c1` [SMR000121771] returned an EC50 of 3.18 µM.
Turning to `Cc1ccc(-c2ccc(/C=C/C(=O)c3ccccc3)o2)cc1`, the EC50 is 7.03 µM.
In turn, `Clc1nc(NCc2cccnc2)nc(N2CCOCC2)n1` [MLS000121154] registered an EC50 of 30.8 µM.
As to `Nc1ccccc1/N=c1/ssnc1Cl` [N-[(5Z)-4-chloro-5H-1,2,3-dithiazol-5-ylidene]benzene-1,2-diamine], the EC50 was found to be 4.72 µM.
For `COc1cc(C2Nc3cccc4cccc(c34)N2)ccc1OC(C)=O` [Acetic acid 4-(2,3-dihydro-1H-perimidin-2-yl)-2-methoxy-phenyl ester], the 50% effective concentration (EC50) came out at 11.1 µM.
Same read-out and setting: as for `O=C(Nc1ccc2nc(-c3ccco3)c(-c3ccco3)nc2c1)NC1CC1` [SMR000118524], the figure is 3.9 µM; as for `O=C(/C=C/c1ccc(-c2ccccc2[N+](=O)[O-])o1)c1ccccc1`, 2.61 µM.
In the case of `COc1ccc(/C=C(/C(=O)c2cccs2)N2C=CC=CC2=C(C#N)C#N)cc1` [2-[1-[(Z)-1-(4-methoxyphenyl)-3-oxidanylidene-3-thiophen-2-yl-prop-1-en-2-yl]pyridin-2-ylidene]propanedinitrile], the half-maximal effective concentration (EC50) is 2.23 µM.
Compound `CC(C)CN1C(=O)/C(=C/c2ccco2)NC1=S` [(5Z)-5-(2-furanylmethylidene)-3-(2-methylpropyl)-2-sulfanylidene-4-imidazolidinone] came in with an EC50 of 11 µM.
Compound `CC(=O)Nc1ccc(-n2cc(-c3ccccc3)[nH]c2=S)cc1` [MLS001001946] registered a concentration giving a half-maximal response (EC50) of 0.47 µM.
`CN(C)c1ccc(Nc2nc(-c3cccnc3)cs2)cc1` [SMR000104797] showed an EC50 of 0.85 µM.
`Cc1ccc(-c2cc(-c3ccc(Cl)cc3)c(C#N)c(N)n2)o1` [2-azanyl-4-(4-chlorophenyl)-6-(5-methylfuran-2-yl)pyridine-3-carbonitrile] returned an EC50 of 2.65 µM.
As to `Cc1ccc(C(=O)/C=C/c2ccc(-c3ccc(C)cc3)o2)cc1` [1-p-Tolyl-3-(5-p-tolyl-furan-2-yl)-propenone], the concentration giving a half-maximal response (EC50) is 3.23 µM.

The experiment is the same for the next values; noted with them: pH 7.4; 4 °C.
Take `CCN1/C(=C/c2ccc3cc(C)ccc3[n+]2CC)Sc2cc(C)c(C)cc21`: the midpoint of the response, the EC50, lay at 16.9 µM.
For the compound `COc1ccc(N2C(=O)C(=Nc3c(C)n(C)n(-c4ccccc4)c3=O)C(Cl)C2=O)cc1` (centres undefined) [3-chloranyl-4-[(1,5-dimethyl-3-oxidanylidene-2-phenyl-pyrazol-4-yl)amino]-1-(4-methoxyphenyl)pyrrole-2,5-dione], the EC50 is 12 µM.
Same read-out and setting: to `CC(C)(C)NC(=O)COc1ccc(CNc2ccc3[nH]c(O)nc3c2)cc1` [N-tert-butyl-2-[4-[[(2-oxidanylidene-1,3-dihydrobenzimidazol-5-yl)amino]methyl]phenoxy]ethanamide] belongs 2.87 µM; to `Cc1ccc(-c2cc(-c3ccc(F)cc3)c(C#N)c(N)n2)o1`, 5.2 µM.
The compound `Cc1nc2scc(-c3ccccc3)c2c(=O)n1N=C1C=CC(=O)C=C1` [SMR000285999] came in with an EC50 of 0.56 µM.
`O=C(c1ccccc1)c1ccc2nc(-c3ccco3)c(-c3ccco3)nc2c1` returned an EC50 of 9.94 µM.
In turn, `CCC(=O)OCCNc1cc(Sc2nc3ccccc3s2)c2nonc2c1[N+](=O)[O-]` [SMR000131460] returned an EC50 of 0.08 µM.
As for `COc1ccc2nc(-c3ccco3)c(-c3ccco3)nc2c1` [2,3-di-2-furyl-6-methoxyquinoxaline], the 50% effective concentration (EC50) worked out at 4.93 µM.
Regarding `COc1cc(CNc2ccc(N3CCCC3)cc2)cc(Cl)c1OC` [N-[(3-chloranyl-4,5-dimethoxy-phenyl)methyl]-4-pyrrolidin-1-yl-aniline], a half-maximal response (EC50) required 5.3 µM.
The same measure, in the same setting: as for `c1ccc(-c2nc(N3CCOCC3)[s+]n2-c2ccccc2)cc1`, the figure is 0.05 µM; as for `O=C(O)c1ccc(NC2=CC(=NS(=O)(=O)c3ccccc3)c3ccccc3C2=O)cc1` [SMR000313157], 9.21 µM.
Compound `CCOC(=O)C1=C(Cc2ccc(C)cc2)C(=O)c2ccccc2C1=O` [ethyl 3-[(4-methylphenyl)methyl]-1,4-bis(oxidanylidene)naphthalene-2-carboxylate] displayed an EC50 of 3.2 µM.
Turning to `COc1ccc2c3c(cccc13)N(C)N=C2C` [MLS000554700], the response was half-maximal at 0.61 µM (EC50).
Still for that read-out and setting: to `CCN1C(=O)/C(=C/C=C2\C=CN(CC)c3ccccc32)SC1=S` belongs 3.6 µM; to `CCOC(=O)C1CCN(C(=O)Nc2ccc3nc(-c4ccco4)c(-c4ccco4)nc3c2)CC1` [MLS000113285], 1.18 µM.
`COc1ccc(CCNC(=O)c2ccc3nc(-c4ccco4)c(-c4ccco4)nc3c2)cc1OC` [N-[2-(3,4-dimethoxyphenyl)ethyl]-2,3-di-2-furylquinoxaline-6-carboxamide] showed a 50% effective concentration (EC50) of 4.3 µM.
Same read-out and setting: as for `CN1CCc2cccc3c2[C@H]1Cc1ccc(O)c(O)c1-3` [APOMORPHINE HYDROCHLORIDE], the figure is 46.4 µM; as for `CC(=O)c1ccc(NC(=O)c2ccc3nc(-c4ccco4)c(-c4ccco4)nc3c2)cc1` [N-(4-acetylphenyl)-2,3-di-2-furyl-6-quinoxalinecarboxamide], 2.34 µM; as for `Cn1c(=O)c(C(=O)COC(=O)c2cc(-c3ccco3)nc3ccccc23)c(N)n(Cc2ccccc2)c1=O` [[2-(6-amino-1-benzyl-3-methyl-2,4-dioxopyrimidin-5-yl)-2-oxoethyl] 2-(furan-2-yl)quinoline-4-carboxylate], 1.77 µM.
In turn, `Cc1c(N=C2C(=O)N(c3ccccc3)C(=O)C2Cl)c(=O)n(-c2ccccc2)n1C` (centres undefined) [3-chloranyl-4-[(1,5-dimethyl-3-oxidanylidene-2-phenyl-pyrazol-4-yl)amino]-1-phenyl-pyrrole-2,5-dione] came in with a 50% effective concentration (EC50) of 15.4 µM.
Turning to `COC(=O)c1c(C(=O)OC)c2cccc3cc(-c4ccccc4)c4ccc1c4n32` [SMR000161417], the midpoint of the response, the EC50, lay at 1.12 µM.
Turning to `COc1cc(/C=C2\CC/C(=C\c3cc(OC)c(O)c(OC)c3)C2=O)cc(OC)c1O` [(2E,5E)-2,5-bis[(4-hydroxy-3,5-dimethoxyphenyl)methylidene]cyclopentan-1-one], the EC50 amounted to 3.9 µM.
On the same count and under the same terms, to `O=C(/C=C/c1ccccc1Cl)c1ccccc(=O)c1O` [3-[(E)-3-(2-chlorophenyl)prop-2-enoyl]-2-oxidanyl-cyclohepta-2,4,6-trien-1-one] belongs 9.01 µM; to `CN=c1scc(-c2cccs2)n1N=Cc1ccc(O)c(O)c1O` [SMR000242177], 5.71 µM; to `Cc1ccc(-c2cc(C(=O)Nc3nccs3)c3ccccc3n2)o1` [MLS000579660], 9.21 µM.
With `O=C1/C(=C\c2ccc(-c3ccccc3Cl)o2)SC(=S)N1CC1CCCO1` (centres undefined) [(5E)-5-[[5-(2-chlorophenyl)furan-2-yl]methylidene]-3-(oxolan-2-ylmethyl)-2-sulfanylidene-1,3-thiazolidin-4-one], the EC50 was 2.6 µM.
Same read-out and setting: to `O=C(Nc1ccc2nc(-c3ccco3)c(-c3ccco3)nc2c1)N1CCCCCC1` belongs 0.92 µM; to `CCN(CC)c1ccc(NC2=C(Cl)C(=O)c3ccccc3C2=O)cc1` [2-chloro-3-{[4-(diethylamino)phenyl]amino}naphthoquinone], 0.18 µM.
